Consider ten compounds from ChEMBL document CHEMBL1152235, “(3R)-3-amino-4-(2,4,5-trifluorophenyl)-N-{4-[6-(2-methoxyethoxy)benzothiazol-2-yl]tetrahydropyran-4-yl}butanamide as a potent dipeptidyl peptidase IV inhibitor for the treatment of type 2 diabetes” (Bioorg Med Chem Lett, 2008).

For data set [1] the following is noted: rat, microsomes.
For data set [2] the following is noted: human, microsomes.
The conditions of data set [3]: mouse, microsomes.
Description: Metabolic stability in mouse microsomes assessed as intrinsic clearance
A further data set relates to Mus musculus. In words: Reduction in blood glucose excursion in ICR mouse at 30 mg/kg, po administered 30 mins prior to glucose challenge by glucose tolerance test. The arrangement: dose 30 mg/kg. Format: functional, organism-based.
The subject of a further data set is Rattus norvegicus. In words: Inhibition of DPP4 in po dosed Sprague-Dawley rat plasma. In kind it is functional.

Calls of active or inactive are those of the source. The rule behind the calls is not given here.

`COc1ccc2nc(C3(NC(=O)C[C@H](N)Cc4ccccc4F)CCS(=O)(=O)CC3)sc2c1`: the CL was 51.5 µL/min/mg in data set [1] and 26.2 µL/min/mg in data set [2].
As to `COCCOc1ccc2nc(C3(NC(=O)C[C@H](N)Cc4cc(F)c(F)cc4F)CCS(=O)(=O)CC3)sc2c1`, the CL in data set [3] came to 34.1 µL/min/mg; in data set [1], 21.9 µL/min/mg; in data set [2], 46.6 µL/min/mg.
For the compound `N[C@@H](CC(=O)NC1(c2nc3ccccc3s2)CCS(=O)(=O)CC1)Cc1ccccc1F`, the figures for the CL in data set [1] and in data set [2] were 73.4 µL/min/mg and 34.6 µL/min/mg, respectively.
Regarding `C[C@]12CC[C@H]3[C@@H](CCC4=CC(=O)CC[C@@]43C)[C@@H]1CC[C@@H]2O` [TESTOSTERONE], the CL amounted to 312.6 µL/min/mg in data set [3], 375.6 µL/min/mg in data set [1] and 109.3 µL/min/mg in data set [2].
Turning to `COc1ccc2nc(C3(NC(=O)C[C@H](N)Cc4cc(F)c(F)cc4F)CCS(=O)(=O)CC3)sc2c1`, the CL in data set [1] was found to be 42.3 µL/min/mg; in data set [2] it was 32.3 µL/min/mg.
With `COCCOc1ccc2nc(C3(NC(=O)C[C@H](N)Cc4cc(Cl)ccc4F)CCOCC3)sc2c1`, the figures for the CL in data set [3], in data set [1] and in data set [2] were 28.6 µL/min/mg, 98.1 µL/min/mg and 34.2 µL/min/mg, respectively.
The corresponding values for `N[C@@H](CC(=O)NC1(c2nc3ccc(OCCN4CCOCC4)cc3s2)CCS(=O)(=O)CC1)Cc1cc(F)c(F)cc1F` are 34.5 µL/min/mg, 26 µL/min/mg and 92.8 µL/min/mg.
On to `COCCOc1ccc2nc(C3(NC(=O)C[C@H](N)Cc4cc(Cl)ccc4F)CCS(=O)(=O)CC3)sc2c1`, for which the CL was 33 µL/min/mg in data set [3], 31.5 µL/min/mg in data set [1] and 63.8 µL/min/mg in data set [2].
`N[C@@H](CC(=O)NC1(c2nc3ccccc3s2)CCS(=O)(=O)CC1)Cc1cc(F)c(F)cc1F`: the results for the CL in data set [1] and in data set [2] were 64.4 µL/min/mg and 39.9 µL/min/mg, respectively.
Regarding `COCCOc1ccc2nc(C3(NC(=O)C[C@H](N)Cc4cc(F)c(F)cc4F)CCOCC3)sc2c1`, the results for the CL in data set [3], in data set [1] and in data set [2] were 22.1 µL/min/mg, 49.6 µL/min/mg and 21.9 µL/min/mg, respectively. Also, the outcome in the data set on Mus musculus was Active. For the same compound, the Activity result in the data set on Rattus norvegicus was “Dose-dependent effect”. For the same compound, the ED50 in the data set with Rattus norvegicus (read-out: ID50 (the source's name)) came out at 2.7 mg/kg.
